Data published in patent US11707539B2, “FAP-targeted radiopharmaceuticals and imaging agents, and uses related thereto” (Trustees of Tufts College, priority 2020, dated 2023).

Columns and labels:
[1] = system: HEK-mFAP tumor-bearing mice; assay: 68Ga dynamic PET/CT imaging; format: in vivo, mouse; settings: dynamic PET over 60 min, IV bolus
Method: Part 1. Dynamic PET Imaging. The aim of the study is to perform ^68Ga-6555 PET/CT dynamic imaging in HEK-mFAP tumor-bearing mice to assess tumor uptake and retention over time, as well as non-specific uptake. HEK-mFAP tumor-bearing mice were used for the study (N=3). ^68Ga-6555 (prepared as per Example 20) PET imaging was carried out on a dedicated small animal PET/CT scanner (Siemens Multimodality Inveon, Siemens Medical Solutions USA, Inc.). The mice were anesthetized using 3% isoflurane/medical air inhalation prior to the radiotracer injection and throughout the scan duration. Warming was used to maintain healthy core body temperature of the mice during periods of unconsciousness. Following a bolus intravenous injection (via the lateral tail vein) of ^68Ga-6555 (average of 8 MBq, 7.7-8.1 MBq range), a dynamic emission scan was acquired in list mode format over 60 min. […] The reconstructed PET/CT images were analyzed with the Siemens Inveon Research Workplace software. The radioactivity retention within the selected tissue was obtained from mean voxel intensity values within the VOI and then converted to megabecquerels per milliliter using the calibration factor determined for the Inveon PET System. […] We used the maximum SUV value (SUVmax) within a VOI as a quantitative imaging metric which is independent of tissue intrinsic variations. […]

[2] = system: HEK-mFAP tumor-bearing mice; assay: 68Ga biodistribution, gamma counting after 50 min uptake; format: in vivo, mouse
Method: Part 2 Biodistribution. The aim of the study is to assess ^68Ga-6555 biodistribution in HEK-mFAP tumor-bearing mice. HEK-mFAP tumor-bearing mice were used for the study (N=3). The mice were injected with ˜8 MBq (7.3-8.5 MBq range) of ^68Ga-6555 (prepared as per Example 20; IV through the tail vein using a catheter mounted with a 30 Ga needle). After 50 min uptake time (injection was performed under anesthasia using isoflurane inhalant, and stayed under anesthesia for 50 min), the mice were euthanized (with CO2) and tissues were collected (blood via cardiac puncture, heart, lungs, liver, spleen, pancreas, stomach, small intestine, kidney, muscle, femur, bone, skin, brain, tumor). After excision, the tissue samples were counted for gallium-68 radioactivity on a Cobra-II Auto-Gamma counter (Packard Instruments, Meriden, CTA), weighted, and data were expressed as % injected dose per gram (% ID/g).
Conducted as per Example 24 using ^68Ga-6952 prepared as per Example 22.
Biodistribution. The mice were injected with ˜8.6 MBq (7.6-10.0 MBq range). The majority of activity was located in the tumor (average % ID/g of 8.8). The kidney has the next largest amount of activity (average % ID/g of 2.18). […]

C[C@@H](NC(=O)c1ccc(CNC(=O)CN2CCN3CCN4CCN(CC2)CC(=O)[O][Ga]([O]C(=O)C3)[O]C(=O)C4)cc1)C(=O)N1CCC[C@H]1B(O)O [[^68Ga]-6555]
time of accumulation in the tumor (time-vs-activity curve) [1]: < 5 min
time of reaching a plateau in the tumor [1]: 60 min
uptake in all other selected tissues ([2]; 50 min uptake time, IV): low level of uptake comparable to the muscle
% ID/g Blood, AVERAGE ([2]; Blood, 50 min uptake after IV injection, average of N=3 mice): 0.57 % ID/g
% ID/g Blood, mouse #002 ([2]; Blood, 50 min uptake, individual mouse #002): 0.67 % ID/g
% ID/g Blood, mouse #005 ([2]; Blood, 50 min uptake, individual mouse #005): 0.38 % ID/g
% ID/g Blood, mouse #009 ([2]; Blood, 50 min uptake, individual mouse #009): 0.64 % ID/g
% ID/g Bone (femur), AVERAGE ([2]; Bone (femur), 50 min uptake after IV injection, average of N=3 mice): 0.33 % ID/g
% ID/g Bone (femur), mouse #002 ([2]; Bone (femur), 50 min uptake, individual mouse #002): 0.31 % ID/g
% ID/g Bone (femur), mouse #005 ([2]; Bone (femur), 50 min uptake, individual mouse #005): 0.50 % ID/g
% ID/g Bone (femur), mouse #009 ([2]; Bone (femur), 50 min uptake, individual mouse #009): 0.20 % ID/g
% ID/g Brain, AVERAGE ([2]; Brain, 50 min uptake after IV injection, average of N=3 mice): 0.07 % ID/g
% ID/g Brain, mouse #002 ([2]; Brain, 50 min uptake, individual mouse #002): 0.03 % ID/g
% ID/g Brain, mouse #005 ([2]; Brain, 50 min uptake, individual mouse #005): 0.07 % ID/g
% ID/g Brain, mouse #009 ([2]; Brain, 50 min uptake, individual mouse #009): 0.10 % ID/g
% ID/g Heart, AVERAGE ([2]; Heart, 50 min uptake after IV injection, average of N=3 mice): 0.34 % ID/g
% ID/g Heart, mouse #002 ([2]; Heart, 50 min uptake, individual mouse #002): 0.41 % ID/g
% ID/g Heart, mouse #005 ([2]; Heart, 50 min uptake, individual mouse #005): 0.17 % ID/g
% ID/g Heart, mouse #009 ([2]; Heart, 50 min uptake, individual mouse #009): 0.43 % ID/g
% ID/g Kidneys, AVERAGE ([2]; Kidneys, 50 min uptake after IV injection, average of N=3 mice): 1.37 % ID/g
% ID/g Kidneys, mouse #002 ([2]; Kidneys, 50 min uptake, individual mouse #002): 1.50 % ID/g
% ID/g Kidneys, mouse #005 ([2]; Kidneys, 50 min uptake, individual mouse #005): 1.03 % ID/g
% ID/g Kidneys, mouse #009 ([2]; Kidneys, 50 min uptake, individual mouse #009): 1.58 % ID/g
% ID/g Liver, AVERAGE ([2]; Liver, 50 min uptake after IV injection, average of N=3 mice): 1.01 % ID/g
% ID/g Liver, mouse #002 ([2]; Liver, 50 min uptake, individual mouse #002): 1.00 % ID/g
% ID/g Liver, mouse #005 ([2]; Liver, 50 min uptake, individual mouse #005): 0.79 % ID/g
% ID/g Liver, mouse #009 ([2]; Liver, 50 min uptake, individual mouse #009): 1.23 % ID/g
% ID/g Lungs, AVERAGE ([2]; Lungs, 50 min uptake after IV injection, average of N=3 mice): 0.56 % ID/g
% ID/g Lungs, mouse #002 ([2]; Lungs, 50 min uptake, individual mouse #002): 0.62 % ID/g
% ID/g Lungs, mouse #005 ([2]; Lungs, 50 min uptake, individual mouse #005): 0.39 % ID/g
% ID/g Lungs, mouse #009 ([2]; Lungs, 50 min uptake, individual mouse #009): 0.67 % ID/g
% ID/g Muscle, AVERAGE ([2]; Muscle, 50 min uptake after IV injection, average of N=3 mice): 0.74 % ID/g
% ID/g Muscle, mouse #002 ([2]; Muscle, 50 min uptake, individual mouse #002): 0.09 % ID/g
% ID/g Muscle, mouse #005 ([2]; Muscle, 50 min uptake, individual mouse #005): 0.21 % ID/g
% ID/g Muscle, mouse #009 ([2]; Muscle, 50 min uptake, individual mouse #009): 1.92 % ID/g
% ID/g Pancreas, AVERAGE ([2]; Pancreas, 50 min uptake after IV injection, average of N=3 mice): 0.92 % ID/g
% ID/g Pancreas, mouse #002 ([2]; Pancreas, 50 min uptake, individual mouse #002): 1.41 % ID/g
% ID/g Pancreas, mouse #005 ([2]; Pancreas, 50 min uptake, individual mouse #005): 0.93 % ID/g
% ID/g Pancreas, mouse #009 ([2]; Pancreas, 50 min uptake, individual mouse #009): 0.42 % ID/g
% ID/g Skin, AVERAGE ([2]; Skin, 50 min uptake after IV injection, average of N=3 mice): 0.28 % ID/g
% ID/g Skin, mouse #002 ([2]; Skin, 50 min uptake, individual mouse #002): 0.31 % ID/g
% ID/g Skin, mouse #005 ([2]; Skin, 50 min uptake, individual mouse #005): 0.27 % ID/g
% ID/g Skin, mouse #009 ([2]; Skin, 50 min uptake, individual mouse #009): 0.25 % ID/g
% ID/g Small intestine, AVERAGE ([2]; Small intestine, 50 min uptake after IV injection, average of N=3 mice): 0.31 % ID/g
% ID/g Small intestine, mouse #002 ([2]; Small intestine, 50 min uptake, individual mouse #002): 0.39 % ID/g
% ID/g Small intestine, mouse #005 ([2]; Small intestine, 50 min uptake, individual mouse #005): 0.19 % ID/g
% ID/g Small intestine, mouse #009 ([2]; Small intestine, 50 min uptake, individual mouse #009): 0.35 % ID/g
% ID/g Spleen, AVERAGE ([2]; Spleen, 50 min uptake after IV injection, average of N=3 mice): 0.77 % ID/g
% ID/g Spleen, mouse #002 ([2]; Spleen, 50 min uptake, individual mouse #002): 0.23 % ID/g
% ID/g Spleen, mouse #005 ([2]; Spleen, 50 min uptake, individual mouse #005): 0.74 % ID/g
% ID/g Spleen, mouse #009 ([2]; Spleen, 50 min uptake, individual mouse #009): 1.34 % ID/g
% ID/g Stomach, AVERAGE ([2]; Stomach, 50 min uptake after IV injection, average of N=3 mice): 0.20 % ID/g
% ID/g Stomach, mouse #002 ([2]; Stomach, 50 min uptake, individual mouse #002): 0.07 % ID/g
% ID/g Stomach, mouse #005 ([2]; Stomach, 50 min uptake, individual mouse #005): 0.21 % ID/g
% ID/g Stomach, mouse #009 ([2]; Stomach, 50 min uptake, individual mouse #009): 0.32 % ID/g
% ID/g Tumor, AVERAGE ([2]; Tumor (HEK-mFAP), 50 min uptake after IV injection, average of N=3 mice): 10.10 % ID/g
% ID/g Tumor, mouse #002 ([2]; Tumor (HEK-mFAP), 50 min uptake, individual mouse #002): 10.01 % ID/g
% ID/g Tumor, mouse #005 ([2]; Tumor (HEK-mFAP), 50 min uptake, individual mouse #005): 8.47 % ID/g
% ID/g Tumor, mouse #009 ([2]; Tumor (HEK-mFAP), 50 min uptake, individual mouse #009): 11.83 % ID/g
average % ID/g ([2]; kidney, 50 min uptake time, IV): 1.37 % ID/g
average % ID/g ([2]; tumor, 50 min uptake time, IV): 10.1 % ID/g
